Assay results as given in patent US20010018065A1, “Compounds and methods for the treatment of bacterial dysentery using antibiotics and toxin binding oligosaccharide compositions” (priority 1998, published 2001).
In brackets after ≈: the same amount, converted by molar mass.

System: E. coli ATCC 25922
Test: Minimum inhibitory concentration (NCCLS M7-A2) for reference strain
Type: cell-based
Settings: reference strain ATCC #25922; for MIC: Escherichia coli, ATCC25922

| SMILES | MIC [µg/mL] | Minimum Inhibitory Concentration [µg/mL] |
| --- | --- | --- |
| O=C(O)c1cn(C2CC2)c2cc(N3CCNCC3)c(F)cc2c1=O [Ciprofloxacin] | 0.0384 (≈ 0.116 µM) | – |
| C=CC1=C(C(=O)O)N2C(=O)[C@@H](NC(=O)/C(=N\OCC(=O)O)c3csc(N)n3)[C@H]2SC1 [Cefixime] | 0.96 (≈ 2.12 µM) | – |
| CO[C@@]12[C@H](COC(N)=O)C3=C(C(=O)C(C)=C(N)C3=O)N1C[C@@H]1N[C@@H]12 [Mitomycin-C] | – | 9.6 |
| CN(C)[C@@H]1C(O)=C(C(N)=O)C(=O)[C@@]2(O)C(O)=C3C(=O)c4c(O)cccc4[C@@](C)(O)[C@H]3C[C@@H]12 [Tetracycline] | 1.92 (≈ 4.32 µM) | – |
